30 compounds from patent US6737431B2 (Bristol-Myers Squibb Company, priority 2002, dated 2004) can be followed below.

One experiment has as its target T1, melatonin ML1b receptor (Homo sapiens, UniProt P49286).
T1 construct: expressed in transfected cells; membrane homogenates
T1 sequence (P49286 1-362): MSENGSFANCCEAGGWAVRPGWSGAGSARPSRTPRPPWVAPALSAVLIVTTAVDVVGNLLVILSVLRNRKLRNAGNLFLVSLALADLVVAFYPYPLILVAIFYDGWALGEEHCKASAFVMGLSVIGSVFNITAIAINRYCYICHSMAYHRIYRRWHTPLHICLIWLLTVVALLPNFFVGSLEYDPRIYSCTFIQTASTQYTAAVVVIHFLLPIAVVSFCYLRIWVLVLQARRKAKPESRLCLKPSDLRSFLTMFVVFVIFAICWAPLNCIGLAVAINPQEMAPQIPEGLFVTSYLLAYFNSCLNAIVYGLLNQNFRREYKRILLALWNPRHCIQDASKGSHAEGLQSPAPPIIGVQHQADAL
As to the kind of experiment: Melatonergic receptor binding, 2-[125I]-iodomelatonin, ML1b. The note with it: NIH-3T3 membranes, 0.2 nM 2-[125I]-iodomelatonin, 37° C. 1 hour. The protocol:
(§1) Melatonergic Receptor Binding Activity
(§2) (a) TME=50 mM Tris buffer containing 12.5 mM MgCl2, and 2 mM EDTA, pH 7.4 at 37° C., with concentrated HCl.
(§3) (b) Wash buffer: 20 mM Tris base containing 2 mM MgCl2, pH 7.4 at room temperature.
(§4) (c) 10^−4 M melatonin (10^−5 M final concentration).
(e) 2-[^125I]-iodomelatonin ML1b, 0.2 nM final concentration.
(§5) 2. Membrane Homogenates: The melatonin ML1a and ML1b receptors cDNA were individually subcloned into pcDNA3 and introduced into NIH-3T3 cells using Lipofectamine. Transformed NIH-3T3 cells resistant to geneticin (G-418) were isolated, and single colonies expressing high levels of 2[^125I]-iodomelatonin binding were isolated. Cells are maintained in DMEM supplemented with 10% calf serum and G-418 (0.5 g/liter). Cells are grown to confluency in T-175 flasks, scraped using Hank's balanced salt solution, and frozen at −80° C. For preparing membrane homogenates, pellets are thawed on ice, and re-suspended in TME buffer in the presence of 10 μg/ml aprotinin and leupeptin, and 100 μM phenylmethylsulfonylfluoride. The cells were then homogenized using a dounce homogenizer, and centrifuged. The resulting pellet was re-suspended with dounce homogenizer in TME (supplemented with the above protease inhibitors) and frozen. On the day of assay, a small aliquot was thawed on ice and re-suspended in the ice cold TME (1:50-1:100 v/v) and held on ice until assayed.
(§6) 3. Incubation: 37° C. for 1 hour. Reaction is terminated by filtration. Filters were washed 3 times.
(§7) 4. References: Reppert, S. M. et al., Neuron, 13, p. 1177-1185 (1994); and Reppert, S. M. et al., Proc. Natl. Acad. Sci. USA, 92, p. 8734-8738 (1995).
(§8) The compounds of the present invention have affinity for receptors of the endogenous pineal hormone, melatonin, as determined in receptor binding assays described above in Tables I to III for the ML1a and ML1b (human) receptors. Melatonin is involved in the regulation of a variety of biological rhythms and exerts its biological effects via interaction with specific receptors. There is evidence that administration of melatonin agonists are of clinical utility in the treatment of various conditions regulated by melatonin activity. Such conditions include depression, jet-lag, work-shift syndrome, sleep disorders, glaucoma, some disorders associated with reproduction, cancer benign prostatic hyperplasia, immune disorders, and neuroendocrine disorders.

Another experiment concerns the target T2, melatonin ML1a receptor (Homo sapiens, UniProt P48039).
T2 construct: expressed in transfected cells; membrane homogenates
The experiment is described as follows: Melatonergic receptor binding, 2-[125I]-iodomelatonin, ML1a. The note with it: NIH-3T3 membranes, 0.1 nM 2-[125I]-iodomelatonin, 37° C. 1 hour. As for the experimental part:
as §1, §2, §3, §4
(d) 2-[^125I]-iodomelatonin ML1a, 0.1 nM final concentration.
as §5, §6, §7, §8

T2 sequence (P48039 whole entry): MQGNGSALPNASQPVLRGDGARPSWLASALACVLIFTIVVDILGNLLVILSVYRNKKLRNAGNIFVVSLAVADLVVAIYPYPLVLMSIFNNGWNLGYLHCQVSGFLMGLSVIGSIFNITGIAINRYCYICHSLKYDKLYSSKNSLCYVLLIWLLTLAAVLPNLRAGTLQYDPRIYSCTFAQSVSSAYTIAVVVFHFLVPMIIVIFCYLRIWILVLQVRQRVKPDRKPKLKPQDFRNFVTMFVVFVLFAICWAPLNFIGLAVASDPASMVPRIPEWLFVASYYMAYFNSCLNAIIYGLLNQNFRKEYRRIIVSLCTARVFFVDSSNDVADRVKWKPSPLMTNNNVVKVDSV

Consider `CCc1nc2ccc(-c3ccc(OC)cc3)c(CCCNC(=O)C3CC3)c2o1` [Example 54, Cyclopropyl-N-{3-[2-ethyl-6-(4-methoxyphenyl)benzoxazol-7-yl]propyl}carboxamide], for which the IC50 at melatonin ML1b receptor (Table II) is 10 to 250 nM; at melatonin ML1a receptor (Table II) it was over 250 nM.

In the case of “N-({(1R,2R)-2-[2-(5-Phenylbutyl)benzoxazol-7-yl]cyclopropyl}methyl)propanamide [Example 95]”, the IC50 at melatonin ML1b receptor (Table III) and at melatonin ML1a receptor (Table III) was under 10 nM throughout.

Turning to `CCCc1nc2cccc(CCCNC(=O)CC)c2o1` [Example 14, N-[3-(2-Propylbenzoxazol-7-yl)propyl]propanamide], the IC50 on melatonin ML1b receptor (Table I) and on melatonin ML1a receptor (Table I) was 10 to 250 nM throughout.

Turning to `CCNC(=O)NCCCc1cccc2nc(C(C)C)oc12` [Example 39, (Ethylamino)-N-{3-[2-(methylethyl)benzoxazol-7-yl]propyl}carboxamide], the IC50 at melatonin ML1b receptor (Table I) was 10 to 250 nM; at melatonin ML1a receptor (Table I) it was over 250 nM.

With `CCNC(=O)NCCCc1cccc2nc(CCCCc3ccccc3)oc12` [Example 30, (Ethylamino)-N-{3-[2-(4-phenylbutyl)benzoxazol-7-yl]propyl}carboxamide], the IC50 on melatonin ML1b receptor (Table I) was 10 to 250 nM; at melatonin ML1a receptor (Table I), under 10 nM.

For the compound `CCC(=O)NC[C@@H]1C[C@H]1c1cccc2nc(CC)oc12` [Example 77, N-{[(1R,2R)-2-(2-Ethylbenzoxazol-7-yl)cyclopropyl]methyl}propanamide], the IC50 on melatonin ML1b receptor (Table III) and at melatonin ML1a receptor (Table III) was under 10 nM each time.

For the compound `O=C(NCCCc1cccc2nc(-c3ccccc3)oc12)C1CC1` [Example 23, Cyclopropyl-N-[3-(2-phenylbenzoxazol-7-yl)propyl]carboxamide], the IC50 on melatonin ML1b receptor (Table I) and at melatonin ML1a receptor (Table I) was 10 to 250 nM throughout.

Consider “N-({(1R,2R)-2-[2-(5-Phenylbutyl)benzoxazol-7-yl]cyclopropyl}methyl)butanamide [Example 96]”, for which the IC50 at melatonin ML1b receptor (Table III) and on melatonin ML1a receptor (Table III) was under 10 nM in each case.

In the case of `CC(=O)NCCCc1cccc2nc(CCCCc3ccccc3)oc12` [Example 25, N-{3-[2-(4-Phenylbutyl)benzoxazol-7-yl]propyl}acetamide], the values for the IC50 on melatonin ML1b receptor (Table I) and on melatonin ML1a receptor (Table I) were 10 to 250 nM and under 10 nM, respectively.

Regarding `CCCC(=O)NC[C@@H]1C[C@H]1c1cccc2nc(C(C)C)oc12` [Example 87, N-({(1R,2R)-2-[2-(Methylethyl)benzoxazol-7-yl]cyclopropyl}methyl)butanamide], the 50% inhibitory concentration (IC50) on melatonin ML1b receptor (Table III) and on melatonin ML1a receptor (Table III) was under 10 nM in each case.

Turning to `CCCC(=O)NC[C@@H]1C[C@H]1c1cccc2nc(CC)oc12` [Example 78, N-{[(1R,2R)-2-(2-Ethylbenzoxazol-7-yl)cyclopropyl]methyl}butanamide], the IC50 on melatonin ML1b receptor (Table III) and at melatonin ML1a receptor (Table III) was under 10 nM throughout.

`CCc1nc2cc(-c3ccc(OC)cc3)cc(CCCNC(=O)c3ccccc3)c2o1` [Example 63, N-{3-[2-Ethyl-5-(4-methoxyphenyl)benzoxazol-7-yl]propyl}benzamide]: the IC50 at melatonin ML1b receptor (Table II) was over 250 nM; at melatonin ML1a receptor (Table II) it was 10 to 250 nM.

Turning to `CCc1nc2ccc(-c3ccco3)c(CCCNC(C)=O)c2o1` [Example 73, N-[3-(2-Ethyl-6-(2-furyl)benzoxazol-7-yl)propyl]acetamide], the IC50 on melatonin ML1b receptor (Table II) and at melatonin ML1a receptor (Table II) was under 10 nM each time.

Consider `CCc1nc2ccc(-c3ccc(F)cc3)c(CCCNC(=O)c3ccccc3)c2o1` [Example 48, N-{3-[2-Ethyl-6-(4-fluorophenyl)benzoxazol-7-yl]propyl}benzamide], for which the IC50 on melatonin ML1b receptor (Table II) is 10 to 250 nM; on melatonin ML1a receptor (Table II), over 250 nM.

On to `CCCC(=O)NC[C@@H]1C[C@H]1c1cccc2nc(CCC)oc12` [Example 86, N-{[(1R,2R)-2-(2-Propylbenzoxazol-7-yl)cyclopropyl]methyl}butanamide], for which the IC50 at melatonin ML1b receptor (Table III) and at melatonin ML1a receptor (Table III) was under 10 nM in each case.

For “N-({(1R,2R)-2-[2-(5-Phenylbutyl)benzoxazol-7-yl]cyclopropyl}methyl)acetamide [Example 94]”, the IC50 on melatonin ML1b receptor (Table III) and at melatonin ML1a receptor (Table III) was under 10 nM in each case.

Take `CCc1nc2cccc(CCCNC(=O)C3CC3)c2o1` [Example 11, Cyclopropyl-N-[3-(2-ethylbenzoxazol-7-yl)propyl]carboxamide]: the IC50 at melatonin ML1b receptor (Table I) was 10 to 250 nM; at melatonin ML1a receptor (Table I), under 10 nM.

Turning to `CCc1nc2cc(-c3ccccc3)cc(CCCNC(=O)c3ccccc3)c2o1` [Example 66, N-[3-(2-Ethyl-5-phenylbenzoxazol-7-yl)propyl]benzamide], the IC50 at melatonin ML1b receptor (Table II) and on melatonin ML1a receptor (Table II) was over 250 nM throughout.

Regarding `CCNC(=O)NC[C@@H]1C[C@H]1c1cccc2nc(C(C)C)oc12` [Example 93, N-({(1R,2R)-2-[2-(Methylethyl)benzoxazol-7-yl]cyclopropyl}methyl)(ethylamino)carboxamide], the IC50 at melatonin ML1b receptor (Table III) and on melatonin ML1a receptor (Table III) was 10 to 250 nM each time.

Regarding `CC(C)c1nc2cccc(CCCNC(=O)C3CC3)c2o1` [Example 38, Cyclopropyl-N-{3-[2-(methylethyl)benzoxazol-7-yl]propyl}carboxamide], the results for the IC50 at melatonin ML1b receptor (Table I) and at melatonin ML1a receptor (Table I) were over 250 nM and 10 to 250 nM, respectively.

With `CCc1nc2ccc(-c3ccc(F)cc3)c(CCCNC(=O)C3CC3)c2o1` [Example 49, Cyclopropyl-N-{3-[2-ethyl-6-(4-fluorophenyl)benzoxazol-7-yl]propyl}carboxamide], the IC50 on melatonin ML1b receptor (Table II) was under 10 nM; at melatonin ML1a receptor (Table II), 10 to 250 nM.

As for `C=Cc1ccc2nc(CC)oc2c1CCCNC(=O)OC(C)(C)C` [Example 41, N-t-Butoxycarbonyl 7-(3-aminopropyl)-6-vinyl-2-ethylbenzoxazole], the IC50 on melatonin ML1b receptor (Table II) and on melatonin ML1a receptor (Table II) was over 250 nM each time.

On to `CCc1nc2ccc(-c3ccc(F)cc3)c(CCCNC(C)=O)c2o1` [Example 47, N-{3-[2-Ethyl-6-(4-fluorophenyl)benzoxazol-7-yl]propyl}acetamide], for which the figures for the IC50 on melatonin ML1b receptor (Table II) and on melatonin ML1a receptor (Table II) were under 10 nM and 10 to 250 nM, respectively.

Consider `CCCc1nc2cccc(CCCNC(=O)C3CC3)c2o1` [Example 17, Cyclopropyl-N-[3-(2-propylbenzoxazol-7-yl)propyl]carboxamide], for which the IC50 at melatonin ML1b receptor (Table I) and on melatonin ML1a receptor (Table I) was 10 to 250 nM in each case.

Take `CCC(=O)NCCCc1cccc2nc(-c3ccccc3)oc12` [Example 20, N-[3-(2-Phenylbenzoxazol-7-yl)propyl]propanamide]: the IC50 on melatonin ML1b receptor (Table I) and at melatonin ML1a receptor (Table I) was 10 to 250 nM throughout.

Consider `CCc1nc2cc(Br)cc(CCCNC(=O)c3ccccc3)c2o1` [Example 69, N-[3-(5-Bromo-2-ethylbenzoxazol-7-yl)propyl]benzamide], for which the IC50 at melatonin ML1b receptor (Table II) and on melatonin ML1a receptor (Table II) was over 250 nM throughout.

For the compound `CCNC(=O)NCCCc1cccc2nc(C)oc12` [Example 6, (Ethylamino)-N-[3-(2-methylbenzoxazol-7-yl)propyl]carboxamide], the IC50 at melatonin ML1b receptor (Table I) and on melatonin ML1a receptor (Table I) was 10 to 250 nM in each case.

Take `CCCc1nc2cccc([C@@H]3C[C@H]3CNC(C)=O)c2o1` [Example 82, N-{[(1R,2R)-2-(2-Propylbenzoxazol-7-yl)cyclopropyl]methyl}acetamide]: the IC50 at melatonin ML1b receptor (Table III) and at melatonin ML1a receptor (Table III) was under 10 nM each time.

As to `Cc1nc2cccc(CCCNC(=O)C3CC3)c2o1` [Example 4, N-[3-(2-Methyl-7-benzoxazolyl)propyl]cyclopropanecarboxamide], the IC50 on melatonin ML1b receptor (Table I) and at melatonin ML1a receptor (Table I) was under 10 nM throughout.

For the compound `CCC(=O)NCCCc1cccc2nc(CC)oc12` [Example 8, N-[3-(2-Ethylbenzoxazol-7-yl)propyl]propanamide], the IC50 at melatonin ML1b receptor (Table I) and on melatonin ML1a receptor (Table I) was under 10 nM each time.
